Measured values taken from patent publication US11597721B2, “Heterocyclic compounds comprising pyridine useful as modulators of IL-12, IL-23 and/or IFNα responses” (BRISTOL-MYERS SQUIBB COMPANY, priority 2018, dated 2023).

Tested on: IFNα-Induced STAT Phosphorylation
Assay: IFNα-Induced STAT Phosphorylation in Human Whole Blood
Assay type: cell-based
Settings: Homo sapiens, 1 h compound incubation, 1000 U/mL recombinant human IFNα A/D for 15 min, pSTAT5 in CD3 positive population, read-out: LE Human WB IFNα-Induced Stat Phosph. (IC50)
From the text: IFNα-Induced STAT Phosphorylation in Human Whole Blood
The amount of pSTAT5 expression was quantitated by median fluorescence intensity after gating on the CD3 positive population.

| Compound | IC50 [µM] |
| --- | --- |
| [2H]C([2H])([2H])NC(=O)c1nnc(NC(=O)CC2COC2)cc1Nc1nccc(-c2noc(COC)n2)c1OC [Example 76, 4-({3-methoxy-4-[5-(methoxymethyl)-1,2,4-oxadiazol-3-yl]pyridin-2-yl}amino)-N—(^2H3)methyl-6-[2-(oxetan-3-yl)acetamido]pyridazine-3-carboxamide] | 0.18 |
| [2H]C([2H])([2H])NC(=O)c1nnc(Nc2cc(C(C)(C)O)ccn2)cc1Nc1nccc(-c2noc(C)n2)c1OC [Example 80, 6-{[4-(2-hydroxypropan-2-yl)pyridin-2-yl]amino}-4-{[3-methoxy-4-(5-methyl-1,2,4-oxadiazol-3-yl)pyridin-2-yl]amino}-N—(^2H3)methylpyridazine-3-carboxamide] | 0.6 |
| [2H]C([2H])([2H])NC(=O)c1nnc(NC(=O)CC)cc1Nc1nccc(-c2noc(C)n2)c1OC [Example 81, 4-{[3-methoxy-4-(5-methyl-1,2,4-oxadiazol-3-yl)pyridin-2-yl]amino}-N—(^2H3)methyl-6-propanamidopyridazine-3-carboxamide] | 0.22 |
| [2H]C([2H])([2H])NC(=O)c1nnc(Nc2ccc(C(C)(C)O)cn2)cc1Nc1nccc(-c2noc(C)n2)c1OC [Example 82, 6-{[5-(2-hydroxypropan-2-yl)pyridin-2-yl]amino}-4-{[3-methoxy-4-(5-methyl-1,2,4-oxadiazol-3-yl)pyridin-2-yl]amino}-N—(^2H3)methylpyridazine-3-carboxamide] | 0.03 |
| [2H]C([2H])([2H])NC(=O)c1cnc(NC(=O)C2CC2)cc1Nc1nccc(-c2ccccn2)c1OC [Example 84, 6-(Cyclopropanecarboxamido)-4-((3′-methoxy-[2,4′-bipyridin]-2′-yl)amino)-N-(methyl-d3)nicotinamide] | 0.08 |
| [2H]C([2H])([2H])NC(=O)c1cnc(NC(=O)C2CC2)cc1Nc1nccc(-c2ccc(NC(=O)C3CC3)cn2)c1OC [Example 85, 6-(Cyclopropanecarboxamido)-4-((5-(cyclopropanecarboxamido)-3′-methoxy-[2,4′-bipyridin]-2′-yl)amino)-N-(methyl-d3)nicotinamide] | 0.15 |
| [2H]C([2H])([2H])NC(=O)c1cnc(NC(=O)C2CC2)cc1Nc1nccc(-c2ccc(Cl)cn2)c1OC [Example 86, 4-((5-Chloro-3′-methoxy-[2,4′-bipyridin]-2′-yl)amino)-6-(cyclopropanecarboxamido)-N-(methyl-d3)nicotinamide] | 0.48 |
| [2H]C([2H])([2H])NC(=O)c1nnc(NC(=O)C2CC2)cc1Nc1nccc(-c2cnc(C(=O)N(C)C)cn2)c1OC [Example 87, 6-(Cyclopropanecarboxamido)-4-((4-(5-(dimethylcarbamoyl)pyrazin-2-yl)-3-methoxypyridin-2-yl)amino)-N-(methyl-d3)pyridazine-3-carboxamide] | 0.03 |
| [2H]C([2H])([2H])NC(=O)c1nnc(NC(=O)C2CC2)cc1Nc1nccc(-c2cnc(C(=O)N(C)CC)cn2)c1OC [Example 88, 6-(Cyclopropanecarboxamido)-4-((4-(5-(ethyl(methyl)carbamoyl)pyrazin-2-yl)-3-methoxypyridin-2-yl)amino)-N-(methyl-d3)pyridazine-3-carboxamide] | 0.13 |
| [2H]C([2H])([2H])NC(=O)c1nnc(NC(=O)CC2CC2)cc1Nc1nccc(-c2cnc(C(=O)N(C)C)cn2)c1OC [Example 89, 6-(2-Cyclopropylacetamido)-4-((4-(5-(dimethylcarbamoyl)pyrazin-2-yl)-3-methoxypyridin-2-yl)amino)-N-(methyl-d3)pyridazine-3-carboxamide] | 0.21 |
| [2H]C([2H])([2H])NC(=O)c1nnc(Nc2ccn(C)n2)cc1Nc1nccc(-c2cnc(C(=O)N(C)C)cn2)c1OC [Example 90, 4-((4-(5-(Dimethylcarbamoyl)pyrazin-2-yl)-3-methoxypyridin-2-yl)amino)-N-(methyl-d3)-6-((1-methyl-1H-pyrazol-3-yl)amino)pyridazine-3-carboxamide] | 0.06 |
| [2H]C([2H])([2H])NC(=O)c1nnc(Nc2cc(C)n(C)n2)cc1Nc1nccc(-c2cnc(C(=O)N(C)C)cn2)c1OC [Example 91, 6-((1,5-Dimethyl-1H-pyrazol-3-yl)amino)-4-((4-(5-(dimethylcarbamoyl)pyrazin-2-yl)-3-methoxypyridin-2-yl)amino)-N-(methyl-d3)pyridazine-3-carboxamide] | 0.09 |
| [2H]C([2H])([2H])NC(=O)c1nnc(Nc2cc(Cl)n(C)n2)cc1Nc1nccc(-c2cnc(C(=O)N(C)C)cn2)c1OC [Example 92, 6-((5-Chloro-1-methyl-1H-pyrazol-3-yl)amino)-4-((4-(5-(dimethylcarbamoyl)pyrazin-2-yl)-3-methoxypyridin-2-yl)amino)-N-(methyl-d3)pyridazine-3-carboxamide] | 0.09 |
| [2H]C([2H])([2H])NC(=O)c1cnc(Nc2cc(C)ccn2)cc1Nc1nccc(-c2nnn(C)n2)c1OC [Example 103, 4-((3-methoxy-4-(2-methyl-2H-tetrazol-5-yl)pyridin-2-yl)amino)-N-(methyl-d3)-6-((4-methylpyridin-2-yl)amino)nicotinamide] | 0.28 |
| [2H]C([2H])([2H])NC(=O)c1cnc(NC(=O)CC)cc1Nc1nccc(-c2nnn(C)n2)c1OC [Example 105, 4-{[3-methoxy-4-(2-methyl-2H-1,2,3,4-tetrazol-5-yl)pyridin-2-yl]amino}-N—(^2H3)methyl-6-propanamidopyridine-3-carboxamide] | 0.09 |
| [2H]C([2H])([2H])NC(=O)c1cnc(Nc2cc(C#N)ccn2)cc1Nc1nccc(-c2nnn(C)n2)c1OC [Example 106, 6-[(4-cyanopyridin-2-yl)amino]-4-{[3-methoxy-4-(2-methyl-2H-1,2,3,4-tetrazol-5-yl)pyridin-2-yl]amino}-N—(^2H3)methylpyridine-3-carboxamide] | 0.07 |
